Consider 31 molecules from US9918972B2, “Treatment of leukemia with artemisinin derivatives and combinations with other antineoplastic agents” (UNIVERSITY OF MARYLAND, BALTIMORE, priority 2014, dated 2018).

Where “and” joins values, the source holds several entries; their conditions need not be identical. Identical values can stand only once. Marks after values point to notes of the source that are not given here.

Assay [1] has as its system KOPN8. The assay can be described thus: Kinase inhibitor drug combination screen (MTS, Bliss-independence analysis).
From the text: (§1) Hits were ranked by the observed inhibition over the Bliss independence prediction.
(§2) Combinations with positive values for this Bliss difference were considered synergistic, values near zero, additive, and negative values, antagonistic.
For assay [2], the system named is MOLM14. The assay is described as above.
From the text: as §1, §2
In assay [3] the test system is MOLM14, Kasumi-1, KOPN8 and RCH-ACV leukemia cell lines. The assay can be described thus: Kinase inhibitor drug combination screen, summary over the four leukemia cell lines. The note with it: for No. Cell Lines: cell lines synergistically inhibited (>10% over Bliss) by drug 1 combined with AS and/or ART-838.
From the text: as §1, §2
In assay [4] the test system is RCH-ACV. In words: Kinase inhibitor drug combination screen (MTS, Bliss-independence analysis).
From the text: as §1, §2
The subject of assay [5] is KOPN8 cells. In words: alamarBlue cytotoxicity assay, single-drug IC50, 48 h. Particulars: Homo sapiens, KOPN-8. It counts as cell-based. As for the experimental part:
Cytotoxicity was assessed using alamarBlue assays (Life Technologies, Grand Island, N.Y.; used for IC50 determinations and all drug combinations except the drug combination screen (method described separately below)) or Trypan Blue dye exclusion (Life Technologies, Grand Island, N.Y.; used only for experiments using inhibitors that could interfere with alamarBlue assay performance (NAC, Tiron, DFO)).
Cell lines were seeded in 96-well tissue culture plates at 10^4 cells per well (myeloid leukemia lines) or 2×10^4 cells per well (lymphoid leukemia lines) in culture medium, followed by addition of drugs at the indicated concentrations. 2-4 wells per plate containing media-only were included for background subtraction. Peripheral wells were filled with sterile water to minimize the effects of evaporation.
MOLM14 cells were treated with each of these drugs, alone and in combination with ART-838 or AS at an equipotency ratio based on the IC50s for each drug (Table 1). In Table 1, KOPN8 and MOLM14 cell lines were treated with a range of concentrations of each drug for 48 h then cytotoxicity was measured via alamarBlue assay. Results were normalized to cells treated with vehicle (≦0.5% DMSO) alone. IC50s were calculated using CompuSyn software and represent the means of at least three experiments performed in triplicate. Addition of ART-838 or AS enhanced the cytotoxicity of all six tested drugs across a range of concentrations (FIG. 2). Drug interactions were typically most favorable (more additive/synergistic or less antagonistic) at higher doses.

The mark [6] stands for this setting: KOPN8, Drug 2 = ART-838 at approximate IC50, 48 h.
Where [7] appears, read: KOPN8, Drug 2 = AS at approximate IC50, 48 h.
The mark [8] stands for this setting: MOLM14, Drug 2 = AS at approximate IC50, 48 h.
The mark [9] stands for this setting: MOLM14, Drug 2 = ART-838 at approximate IC50, 48 h.
The mark [10] stands for this setting: Drug 2 = AS at approximate IC50, 48 h.
The mark [11] stands for this setting: Drug 2 = ART-838 at approximate IC50, 48 h.

Consider `CS(=O)(=O)N1CCN(Cc2cc3nc(-c4cccc5[nH]ncc45)nc(N4CCOCC4)c3s2)CC1` [Pictilisib], for which the “fractional inhibition over Bliss prediction” value is given as 0.14 in assay [1] (setting [6]) and 0.12 in assay [1] (setting [7]).

As to `COc1cc2nccc(Oc3ccc(NC(=O)Nc4cc(C)on4)c(Cl)c3)c2cc1OC` [Tivozanib], the “fractional inhibition over Bliss prediction” value in assay [2] (setting [8]) is given as “MOLM14 (0.20),”; in assay [1] (setting [6]), “KOPN8 (0.22)”; in assay [1] (setting [7]), “KOPN8 (0.11)”. In addition, in assay [3], the “No. Cell Lines” value is on record as 2/4.

Consider `Nc1ncnc2c1c(-c1cccc(OCc3ccccc3)c1)cn2C1CC(CN2CCCC2)C1` (stereo not shown) [NVP-ADW742], for which the “fractional inhibition over Bliss prediction” value in assay [2] (setting [9]) is “MOLM14 (0.17),”; in assay [2] (setting [8]) it was “MOLM14 (0.20)”. In addition, the “No. Cell Lines” value in assay [3] is 2/4.

In the case of `NC(=O)c1ccc(-c2nc(-c3ccc4c(c3)OCO4)c(-c3ccccn3)[nH]2)cc1` [SB-431542], the figures for the “fractional inhibition over Bliss prediction” value in assay [2] (setting [9]) and in assay [2] (setting [8]) were 0.11 and 0.16, respectively.

Regarding `COc1ccc(COc2ccc(Cc3cnc(N)nc3N)cc2OC)cc1` [GW-2580], the “fractional inhibition over Bliss prediction” value is “MOLM14 (0.19),” in assay [2] (setting [9]); 0.25 and 0.15 in assay [2] (setting [8]); “KOPN8 (0.19)” in assay [1] (setting [6]); “KOPN8 (0.15)” in assay [1] (setting [7]). The “No. Cell Lines” value in assay [3] is recorded as 2/4.

On to ABT-263, for which the “synergy with AS or ART-838” value in assay [3] (screens in four human leukemia cell lines) is recorded as “Particularly strong synergy”.

For `Oc1nc(-c2ccc(C(F)(F)F)cc2)nc2c1CSCC2` [XAV-939], the “fractional inhibition over Bliss prediction” value in assay [4] (setting [10]) is reported as “RCH-ACV (0.22)”; in assay [2] (setting [9]), “MOLM14 (0.17),”; in assay [1] (setting [6]), “KOPN8 (0.18)”. For the same molecule, in assay [3], the “No. Cell Lines” value is 3/4.

Take `Cc1c[nH]c(-c2cnc(NCCNc3ccc(C#N)cn3)nc2-c2ccc(Cl)cc2Cl)n1` [CHIR-99021]: the entries for the “fractional inhibition over Bliss prediction” value in assay [4] (setting [10]) and in assay [2] (setting [9]) were “RCH-ACV (0.15)” and “MOLM14 (0.53)”, respectively. In addition, the “No. Cell Lines” value in assay [3] is listed as 2/4.

Consider `CC1(C)CNc2cc(NC(=O)c3cccnc3NCc3ccncc3)ccc21` [Motesanib], for which the “fractional inhibition over Bliss prediction” value in assay [1] (setting [6]) is given as 0.15; in assay [1] (setting [7]) it was 0.11.

As to `Cc1ccc(S(=O)(=O)OCC(=O)Nc2ccc(C(=O)O)c(O)c2)cc1` [S31-201], the “fractional inhibition over Bliss prediction” value in assay [2] (setting [9]) is “MOLM14 (0.18),”; in assay [2] (setting [8]) it was “MOLM14 (0.30),”; in assay [1] (setting [6]) it was “KOPN8 (0.23)”; in assay [1] (setting [7]) it was “KOPN8 (0.17)”. For the same molecule, the “No. Cell Lines” value in assay [3] is given as 2/4.

Turning to `CC(C)C[C@H](NC(=O)[C@H](Cc1ccccc1)NC(=O)c1cnccn1)B(O)O` [Bortezomib], the “No. Cell Lines” value in assay [3] was 2/4.

Regarding `Cc1ccc(F)c(NC(=O)Nc2ccc(-c3cccc4[nH]nc(N)c34)cc2)c1` [Linifanib], the “fractional inhibition over Bliss prediction” value in assay [1] (setting [6]) was 0.19; in assay [1] (setting [7]), 0.20.

Regarding `O=S(=O)(NCCNC/C=C/c1ccc(Br)cc1)c1cccc2cnccc12` [H-89], the “fractional inhibition over Bliss prediction” value in assay [2] (setting [9]) was “MOLM14 (0.13),”; in assay [2] (setting [8]), “MOLM14 (0.21)”; in assay [1] (setting [6]), “KOPN8 (0.10)”. The “No. Cell Lines” value in assay [3] was 2/4.

Take `Cn1cc(-c2ccc3nnc(C(F)(F)c4ccc5ncccc5c4)n3n2)cn1` [JNJ-38877605]: the “fractional inhibition over Bliss prediction” value in assay [2] (setting [9]) is “MOLM14 (0.17),”; in assay [2] (setting [8]), “MOLM14 (0.27),”; in assay [1] (setting [6]), “KOPN8 (0.19)”; in assay [1] (setting [7]), “KOPN8 (0.12)”. Moreover, the “No. Cell Lines” value in assay [3] was 2/4.

With `CC(=O)Nc1cccc(-n2c(=O)n(C3CC3)c(=O)c3c(Nc4ccc(I)cc4F)n(C)c(=O)c(C)c32)c1` [Trametinib], the “fractional inhibition over Bliss prediction” value in assay [1] (setting [6]) and in assay [1] (setting [7]) was 0.20 throughout.

Regarding `Cc1ccc(Nc2nccc(N(C)c3ccc4c(C)n(C)nc4c3)n2)cc1S(N)(=O)=O` [Pazopanib], the “No. Cell Lines” value in assay [3] is reported as 3/4.

`Cn1cnc2c(F)c(Nc3ccc(Br)cc3Cl)c(C(=O)NOCCO)cc21` [Selumetinib]: the results for the “fractional inhibition over Bliss prediction” value in assay [2] (setting [9]) and in assay [1] (setting [6]) were “MOLM14 (0.15),” and “KOPN8 (0.19)”, respectively. Also, the “No. Cell Lines” value in assay [3] is given as 2/4.

`O=c1ncn2nc(Sc3ccc(F)cc3F)ccc2c1-c1c(Cl)cccc1Cl` [VX-745]: the “fractional inhibition over Bliss prediction” value in assay [2] (setting [8]) is on record as “MOLM14 (0.11)”; in assay [1] (setting [6]), “KOPN8 (0.14)”. In addition, the “No. Cell Lines” value in assay [3] was 2/4.

As for `CO[C@@H]1[C@H](N(C)C(=O)c2ccccc2)C[C@H]2O[C@]1(C)n1c3ccccc3c3c4c(c5c6ccccc6n2c5c31)C(=O)NC4` [MID, midostaurin], the IC50 in assay [5] is 210 nM.

Turning to `O=C(Nc1cccc(C(F)(F)F)c1)Nc1cc(S(=O)(=O)NC2CC2)ccc1-c1ccsc1` [AGI6780], the figures for the “fractional inhibition over Bliss prediction” value in assay [4] (setting [11]) and in assay [1] (setting [6]) were “RCH-ACV (0.11)” and “KOPN8 (0.17),”, respectively. Also, in assay [3], the “No. Cell Lines” value is recorded as 2/4**.

As to `Cc1ccc(NC(=O)c2ccc(CN3CCN(C)CC3)cc2)cc1Nc1nccc(-c2cccnc2)n1` [Imatinib], the “No. Cell Lines” value in assay [3] is reported as 2/4.

For the molecule `CCCCCCCCCCCCc1ccc(S(=O)(=O)Nc2nncs2)cc1` [PHT-427], the “fractional inhibition over Bliss prediction” value in assay [2] (setting [9]) is 0.20; in assay [2] (setting [8]) it was 0.26.

For the molecule `CCc1cc(Nc2nccc(-c3c(-c4ccc(OC)c(C(=O)Nc5c(F)cccc5F)c4)nc4ccccn34)n2)c(OC)cc1N1CCC(N2CCN(S(C)(=O)=O)CC2)CC1` [GSK-1904529A], the “fractional inhibition over Bliss prediction” value is “RCH-ACV (0.14)” in assay [4] (setting [11]); “RCH-ACV (0.20)” in assay [4] (setting [10]); 0.57 and 0.37 in assay [2] (setting [9]); 0.30 and 0.27 in assay [2] (setting [8]); 0.24 and 0.16 in assay [1] (setting [6]); “KOPN8 (0.18),” in assay [1] (setting [7]). In addition, in assay [3], the “No. Cell Lines” value is given as 3/4.

Consider `O=C(O)c1ccc(Nc2ncc3c(n2)-c2ccc(Cl)cc2C(c2c(F)cccc2F)=NC3)cc1` [MLN8054], for which the “fractional inhibition over Bliss prediction” value in assay [2] (setting [9]) is reported as “MOLM14 (0.15),”; in assay [1] (setting [6]), “KOPN8 (0.11)”. The “No. Cell Lines” value in assay [3] was 2/4.

With `Cc1[nH]c(/C=C2\C(=O)Nc3ccc(S(=O)(=O)N(C)c4cccc(Cl)c4)cc32)c(C)c1C(=O)N1CCN(C)CC1` [SU11274], the “fractional inhibition over Bliss prediction” value was “MOLM14 (0.17),” in assay [2] (setting [9]), “MOLM14 (0.28),” in assay [2] (setting [8]), “KOPN8 (0.39)” in assay [1] (setting [6]) and “KOPN8 (0.17)” in assay [1] (setting [7]). In addition, the “No. Cell Lines” value in assay [3] is 2/4.

With `C[C@@H](Oc1cc(-c2cnn(C3CCNCC3)c2)cnc1N)c1c(Cl)ccc(F)c1Cl` [Crizotinib], the “fractional inhibition over Bliss prediction” value is “RCH-ACV (0.13)” in assay [4] (setting [10]) and “KOPN8 (0.12)” in assay [1] (setting [6]). Further, the “No. Cell Lines” value in assay [3] is recorded as 2/4**.

On to JAK Inhibitor I, for which the “fractional inhibition over Bliss prediction” value in assay [2] (setting [9]) is listed as 0.15; in assay [2] (setting [8]) it was 0.44.

Take `C#Cc1cccc(Nc2ncnc3cc(OCCOC)c(OCCOC)cc23)c1` [Erlotinib]: the “No. Cell Lines” value in assay [3] was 2/4.

In the case of `CN1CCN(CCOc2cc(OC3CCOCC3)c3c(Nc4c(Cl)ccc5c4OCO5)ncnc3c2)CC1` [Saracatinib], the “fractional inhibition over Bliss prediction” value in assay [2] (setting [9]) is reported as 0.21; in assay [2] (setting [8]), 0.33.

`CS(=O)(=O)CCNCc1ccc(-c2ccc3ncnc(Nc4ccc(OCc5cccc(F)c5)c(Cl)c4)c3c2)o1` [Lapatinib]: the “No. Cell Lines” value in assay [3] is reported as 2/4**.

Regarding `Clc1ccc(Nc2nnc(Cc3ccncc3)c3ccccc23)cc1` [Vatalanib], the “fractional inhibition over Bliss prediction” value was 0.12 in assay [1] (setting [6]) and 0.15 in assay [1] (setting [7]).

What is called IC50 is the concentration needed to halve the response being measured.
